In patent US20250059171A1 (Hoffmann-La Roche Inc., priority 2021, published 2025):

Tests used:
MERS-CoV 3CLpro = MERS-CoV 3CLpro (Middle East respiratory syndrome-related coronavirus, UniProt K9N7C7); test: biochemical
SARS-CoV 3CLpro = SARS-CoV 3CLpro (Severe acute respiratory syndrome coronavirus, UniProt P0C6X7); test: biochemical
SARS-CoV-2 3CLpro = SARS-CoV-2 3CLpro (Severe acute respiratory syndrome coronavirus 2, UniProt P0DTD1); test: biochemical
HCoV-229E 3CLpro = HCoV-229E 3CLpro (Human coronavirus 229E, UniProt P0C6X1); test: HCoV-229E 3CLpro inhibition assay (FRET); assay type: biochemical
HCoV-229E 3CLpro, sequence (P0C6X1 2966-3267): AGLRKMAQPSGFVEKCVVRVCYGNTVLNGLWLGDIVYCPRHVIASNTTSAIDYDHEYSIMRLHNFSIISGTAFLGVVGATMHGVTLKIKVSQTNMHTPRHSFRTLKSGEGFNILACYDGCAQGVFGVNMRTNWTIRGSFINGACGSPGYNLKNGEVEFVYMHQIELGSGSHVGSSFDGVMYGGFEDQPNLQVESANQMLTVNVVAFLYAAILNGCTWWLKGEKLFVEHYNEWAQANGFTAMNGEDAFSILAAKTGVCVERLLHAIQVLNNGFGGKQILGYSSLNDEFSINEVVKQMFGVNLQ

MERS-CoV 3CLpro, sequence (K9N7C7 3248-3553): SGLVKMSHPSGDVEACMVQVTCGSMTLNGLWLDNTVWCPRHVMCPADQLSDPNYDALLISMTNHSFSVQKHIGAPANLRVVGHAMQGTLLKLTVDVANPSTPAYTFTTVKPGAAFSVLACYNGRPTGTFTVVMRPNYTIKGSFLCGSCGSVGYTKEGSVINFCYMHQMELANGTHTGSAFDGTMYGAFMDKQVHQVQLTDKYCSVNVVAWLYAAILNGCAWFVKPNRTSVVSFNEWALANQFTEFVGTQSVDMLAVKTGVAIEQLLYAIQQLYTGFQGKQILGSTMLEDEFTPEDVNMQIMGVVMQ

CC(F)(F)C(=O)N[C@H](C(=O)N1C[C@H]2[C@@H]([C@H]1C(=O)NN(C[C@@H]1CCNC1=O)C(=O)[C@@H](F)Cl)C2(C)C)C(C)(C)C [Example 85, N-[(1S)-1-[(1R,2S,5S)-2-[[[(2S)-2-chloro-2-fluoro-acetyl]-[[(3S)-2-oxopyrrolidin-3-yl]methyl]amino]carbamoyl]-6,6-dimethyl-3-azabicyclo[3.1.0]hexane-3-carbonyl]-2,2-dimethyl-propyl]-2,2-difluoro-propanamide]
IC50 (MERS-CoV 3CLpro): 69 nM
IC50 (SARS-CoV 3CLpro): 12 nM
IC50 (SARS-CoV-2 3CLpro): 12 nM
IC50 (HCoV-229E 3CLpro): 21 nM

CCC(C)(C)[C@H](NC(=O)C(F)(F)F)C(=O)N1C[C@H]2[C@@H]([C@H]1C(=O)NN(C[C@@H]1CCNC1=O)C(=O)[C@H](F)Cl)C2(C)C [Example 86, N-[(1S)-1-[(1R,2S,5S)-2-[[[(2R)-2-chloro-2-fluoro-acetyl]-[[(3S)-2-oxopyrrolidin-3-yl]methyl]amino]carbamoyl]-6,6-dimethyl-3-azabicyclo[3.1.0]hexane-3-carbonyl]-2,2-dimethyl-butyl]-2,2,2-trifluoro-acetamide]
IC50 (MERS-CoV 3CLpro): 86 nM
IC50 (SARS-CoV 3CLpro): 19 nM
IC50 (SARS-CoV-2 3CLpro): 7 nM
IC50 (HCoV-229E 3CLpro): 35 nM

CC(C)(C)[C@H](NC(=O)C(F)(F)F)C(=O)N1C[C@H]2[C@@H]([C@H]1C(=O)NN(CCC(N)=O)C(=O)[C@H](F)Cl)C2(C)C [Example 87, 3-[[(2R)-2-chloro-2-fluoro-acetyl]-[[(1R,2S,5S)-3-[(2S)-3,3-dimethyl-2-[(2,2,2-trifluoroacetyl)amino]butanoyl]-6,6-dimethyl-3-azabicyclo[3.1.0]hexane-2-carbonyl]amino]amino]propanamide]
IC50 (MERS-CoV 3CLpro): 73 nM
IC50 (SARS-CoV 3CLpro): 9.3 nM
IC50 (SARS-CoV-2 3CLpro): 14 nM
IC50 (HCoV-229E 3CLpro): 19 nM

CC(C)(C)[C@H](NC(=O)C1CC(F)(F)C1)C(=O)N1C[C@H]2[C@@H]([C@H]1C(=O)NN(C[C@@H]1CCNC1=O)C(=O)[C@H](F)Cl)C2(C)C [Example 90, N-[(1S)-1-[(1R,2S,5S)-2-[[[(2R)-2-chloro-2-fluoro-acetyl]-[[(3S)-2-oxopyrrolidin-3-yl]methyl]amino]carbamoyl]-6,6-dimethyl-3-azabicyclo[3.1.0]hexane-3-carbonyl]-2,2-dimethyl-propyl]-3,3-difluoro-cyclobutanecarboxamide]
IC50 (MERS-CoV 3CLpro): 55 nM
IC50 (SARS-CoV 3CLpro): 12 nM
IC50 (SARS-CoV-2 3CLpro): 10 nM
IC50 (HCoV-229E 3CLpro): 22 nM

CC(C)(C)[C@H](NC(=O)C1(F)CCC1)C(=O)N1C[C@H]2[C@@H]([C@H]1C(=O)NN(C[C@@H]1CCNC1=O)C(=O)[C@H](F)Cl)C2(C)C [Example 91, N-[(1S)-1-[(1R,2S,5S)-2-[[[(2R)-2-chloro-2-fluoro-acetyl]-[[(3S)-2-oxopyrrolidin-3-yl]methyl]amino]carbamoyl]-6,6-dimethyl-3-azabicyclo[3.1.0]hexane-3-carbonyl]-2,2-dimethyl-propyl]-1-fluoro-cyclobutanecarboxamide]
IC50 (MERS-CoV 3CLpro): 115 nM
IC50 (SARS-CoV 3CLpro): 15 nM
IC50 (SARS-CoV-2 3CLpro): 12 nM
IC50 (HCoV-229E 3CLpro): 39 nM

CC(C)(C)[C@H](NC(=O)[C@@H]1CC1(F)F)C(=O)N1C[C@H]2[C@@H]([C@H]1C(=O)NN(C[C@@H]1CCNC1=O)C(=O)[C@H](F)Cl)C2(C)C [Example 92, (1S)—N-[(1S)-1-[(1R,2S,5S)-2-[[[(2R)-2-chloro-2-fluoro-acetyl]-[[(3S)-2-oxopyrrolidin-3-yl]methyl]amino]carbamoyl]-6,6-dimethyl-3-azabicyclo[3.1.0]hexane-3-carbonyl]-2,2-dimethyl-propyl]-2,2-difluoro-cyclopropanecarboxamide]
IC50 (MERS-CoV 3CLpro): 57 nM
IC50 (SARS-CoV 3CLpro): 18 nM
IC50 (SARS-CoV-2 3CLpro): 8 nM
IC50 (HCoV-229E 3CLpro): 23 nM

CC(C)(C)[C@H](NC(=O)C1CC(F)(F)C1)C(=O)N1C[C@H]2[C@@H]([C@H]1C(=O)NN(C[C@@H]1CCNC1=O)C(=O)[C@@H](F)Cl)C2(C)C [Example 93, N-[(1S)-1-[(1R,2S,5S)-2-[[[(2S)-2-chloro-2-fluoro-acetyl]-[[(3S)-2-oxopyrrolidin-3-yl]methyl]amino]carbamoyl]-6,6-dimethyl-3-azabicyclo[3.1.0]hexane-3-carbonyl]-2,2-dimethyl-propyl]-3,3-difluoro-cyclobutanecarboxamide]
IC50 (MERS-CoV 3CLpro): 94 nM
IC50 (SARS-CoV 3CLpro): 54 nM
IC50 (SARS-CoV-2 3CLpro): 31 nM
IC50 (HCoV-229E 3CLpro): 42 nM

CC(C)(C)[C@H](NC(=O)C1(F)CC1)C(=O)N1C[C@H]2[C@@H]([C@H]1C(=O)NN(C[C@@H]1CCNC1=O)C(=O)[C@@H](F)Cl)C2(C)C [Example 94, N-[(1S)-1-[(1R,2S,5S)-2-[[[(2S)-2-chloro-2-fluoro-acetyl]-[[(3S)-2-oxopyrrolidin-3-yl]methyl]amino]carbamoyl]-6,6-dimethyl-3-azabicyclo[3.1.0]hexane-3-carbonyl]-2,2-dimethyl-propyl]-1-fluoro-cyclopropanecarboxamide]
IC50 (MERS-CoV 3CLpro): 136 nM
IC50 (SARS-CoV 3CLpro): 29 nM
IC50 (SARS-CoV-2 3CLpro): 21 nM
IC50 (HCoV-229E 3CLpro): 59 nM

CC(C)(C)[C@H](NC(=O)[C@@H]1CC1(F)F)C(=O)N1C[C@H]2[C@@H]([C@H]1C(=O)NN(C[C@@H]1CCNC1=O)C(=O)[C@@H](F)Cl)C2(C)C [Example 95, (1S)—N-[(1S)-1-[(1R,2S,5S)-2-[[[(2S)-2-chloro-2-fluoro-acetyl]-[[(3S)-2-oxopyrrolidin-3-yl]methyl]amino]carbamoyl]-6,6-dimethyl-3-azabicyclo[3.1.0]hexane-3-carbonyl]-2,2-dimethyl-propyl]-2,2-difluoro-cyclopropanecarboxamide]
IC50 (MERS-CoV 3CLpro): 71 nM
IC50 (SARS-CoV 3CLpro): 14 nM
IC50 (SARS-CoV-2 3CLpro): 10 nM
IC50 (HCoV-229E 3CLpro): 28 nM

CC(C)(C)[C@H](NC(=O)[C@H]1CC1(F)F)C(=O)N1C[C@H]2[C@@H]([C@H]1C(=O)NN(C[C@@H]1CCNC1=O)C(=O)[C@@H](F)Cl)C2(C)C [Example 96, (1R)—N-[(1S)-1-[(1R,2S,5S)-2-[[[(2S)-2-chloro-2-fluoro-acetyl]-[[(3S)-2-oxopyrrolidin-3-yl]methyl]amino]carbamoyl]-6,6-dimethyl-3-azabicyclo[3.1.0]hexane-3-carbonyl]-2,2-dimethyl-propyl]-2,2-difluoro-cyclopropanecarboxamide]
IC50 (MERS-CoV 3CLpro): 63 nM
IC50 (SARS-CoV 3CLpro): 14 nM
IC50 (SARS-CoV-2 3CLpro): 11 nM
IC50 (HCoV-229E 3CLpro): 25 nM

CC(C)(C)[C@H](NC(=O)C1(F)CCC1)C(=O)N1C[C@@H]2CCC[C@@H]2[C@H]1C(=O)NN(C[C@@H]1CCNC1=O)C(=O)[C@H](F)Cl [Example 97, N-[(1S)-1-[(3S,3aS,6aR)-3-[[[(2R)-2-chloro-2-fluoro-acetyl]-[[(3S)-2-oxopyrrolidin-3-yl]methyl]amino]carbamoyl]-3,3a,4,5,6,6a-hexahydro-1H-cyclopenta[c]pyrrole-2-carbonyl]-2,2-dimethyl-propyl]-1-fluoro-cyclobutanecarboxamide]
IC50 (MERS-CoV 3CLpro): 208 nM
IC50 (SARS-CoV 3CLpro): 13 nM
IC50 (SARS-CoV-2 3CLpro): 11 nM
IC50 (HCoV-229E 3CLpro): 74 nM

CC(C)(C)[C@H](NC(=O)C1CC(F)(F)C1)C(=O)N1C[C@@H]2CCC[C@@H]2[C@H]1C(=O)NN(C[C@@H]1CCNC1=O)C(=O)[C@H](F)Cl [Example 98, N-[(1S)-1-[(3S,3aS,6aR)-3-[[[(2R)-2-chloro-2-fluoro-acetyl]-[[(3S)-2-oxopyrrolidin-3-yl]methyl]amino]carbamoyl]-3,3a,4,5,6,6a-hexahydro-1H-cyclopenta[c]pyrrole-2-carbonyl]-2,2-dimethyl-propyl]-3,3-difluoro-cyclobutanecarboxamide]
IC50 (MERS-CoV 3CLpro): 59 nM
IC50 (SARS-CoV 3CLpro): 11 nM
IC50 (SARS-CoV-2 3CLpro): 9 nM
IC50 (HCoV-229E 3CLpro): 22 nM

CC(C)(C)[C@H](NC(=O)[C@@H]1CC1(F)F)C(=O)N1C[C@@H]2CCC[C@@H]2[C@H]1C(=O)NN(C[C@@H]1CCNC1=O)C(=O)[C@H](F)Cl [Example 99, (1S)—N-[(1S)-1-[(3S,3aS,6aR)-3-[[[(2R)-2-chloro-2-fluoro-acetyl]-[[(3S)-2-oxopyrrolidin-3-yl]methyl]amino]carbamoyl]-3,3a,4,5,6,6a-hexahydro-1H-cyclopenta[c]pyrrole-2-carbonyl]-2,2-dimethyl-propyl]-2,2-difluoro-cyclopropanecarboxamide]
IC50 (MERS-CoV 3CLpro): 81 nM
IC50 (SARS-CoV 3CLpro): 12 nM
IC50 (SARS-CoV-2 3CLpro): 8 nM
IC50 (HCoV-229E 3CLpro): 30 nM

CC(C)(C)[C@H](NC(=O)[C@H]1CC1(F)F)C(=O)N1C[C@@H]2CCC[C@@H]2[C@H]1C(=O)NN(C[C@@H]1CCNC1=O)C(=O)[C@H](F)Cl [Example 100, (1R)—N-[(1S)-1-[(3S,3aS,6aR)-3-[[[(2R)-2-chloro-2-fluoro-acetyl]-[[(3S)-2-oxopyrrolidin-3-yl]methyl]amino]carbamoyl]-3,3a,4,5,6,6a-hexahydro-1H-cyclopenta[c]pyrrole-2-carbonyl]-2,2-dimethyl-propyl]-2,2-difluoro-cyclopropanecarboxamide]
IC50 (MERS-CoV 3CLpro): 77 nM
IC50 (SARS-CoV 3CLpro): 14 nM
IC50 (SARS-CoV-2 3CLpro): 8 nM
IC50 (HCoV-229E 3CLpro): 32 nM

CC(C)(C)[C@H](NC(=O)[C@@H]1CC1(F)F)C(=O)N1C[C@@H]2CCC[C@@H]2[C@H]1C(=O)NN(C[C@@H]1CCNC1=O)C(=O)[C@@H](F)Cl [Example 101, (1S)—N-[(1S)-1-[(3S,3aS,6aR)-3-[[[(2S)-2-chloro-2-fluoro-acetyl]-[[(3S)-2-oxopyrrolidin-3-yl]methyl]amino]carbamoyl]-3,3a,4,5,6,6a-hexahydro-1H-cyclopenta[c]pyrrole-2-carbonyl]-2,2-dimethyl-propyl]-2,2-difluoro-cyclopropanecarboxamide]
IC50 (MERS-CoV 3CLpro): 94 nM
IC50 (SARS-CoV 3CLpro): 13 nM
IC50 (SARS-CoV-2 3CLpro): 9 nM
IC50 (HCoV-229E 3CLpro): 40 nM

CC(C)(C)[C@H](NC(=O)C(F)(F)F)C(=O)N1C[C@@H]2CCC[C@@H]2[C@H]1C(=O)NN(C[C@@H]1CCNC1=O)C(=O)[C@@H](F)Cl [Example 102, N-[(1S)-1-[(3S,3aS,6aR)-3-[[[(2S)-2-chloro-2-fluoro-acetyl]-[[(3S)-2-oxopyrrolidin-3-yl]methyl]amino]carbamoyl]-3,3a,4,5,6,6a-hexahydro-1H-cyclopenta[c]pyrrole-2-carbonyl]-2,2-dimethyl-propyl]-2,2,2-trifluoro-acetamide]
IC50 (MERS-CoV 3CLpro): 207 nM
IC50 (SARS-CoV 3CLpro): 16 nM
IC50 (SARS-CoV-2 3CLpro): 12 nM
IC50 (HCoV-229E 3CLpro): 112 nM
